Source: ChEMBL document CHEMBL4665836, “Overcoming β-Lactam resistance in Pseudomonas aeruginosa using non-canonical tobramycin-based antibiotic adjuvants” (2020)

How the values were obtained:
Type in all cases: functional
Pseudomonas aeruginosa [1] = assay: Potentiation of aztreonam-induced antibacterial activity against carbapenem-resistant Pseudomonas aeruginosa 88949 clinical isolate assessed as fold reduction in aztreonam MIC at 8 uM in presence of beta-lactamase inhibitor, avi-bactam
Pseudomonas aeruginosa [2] = assay: Potentiation of aztreonam-induced antibacterial activity against carbapenem-resistant Pseudomonas aeruginosa 108590 clinical isolate assessed as fold reduction in aztreonam MIC at 8 uM in presence of beta-lactamase inhibitor, avi-bactam
Pseudomonas aeruginosa [3] = assay: Potentiation of imipenem-induced antibacterial activity against carbapenem-resistant Pseudomonas aeruginosa 109084 clinical isolate assessed as imipenem MIC at 8 uM by checkerboard assay (reference value: 16 ug/ml)
Pseudomonas aeruginosa [4] = assay: Potentiation of imipenem-induced antibacterial activity against carbapenem-resistant Pseudomonas aeruginosa 100036 clinical isolate assessed as imipenem MIC at 8 uM by checkerboard assay (reference value: 8 ug/ml)
Pseudomonas aeruginosa [5] = assay: Potentiation of imipenem-induced antibacterial activity against carbapenem-resistant Pseudomonas aeruginosa 260-97103 clinical isolate assessed as imipenem MIC at 8 uM by checkerboard assay (reference value: 16 ug/ml)
Pseudomonas aeruginosa [6] = assay: Potentiation of ceftazidime-induced antibacterial activity against carbapenem-resistant Pseudomonas aeruginosa 264-104354 clinical isolate assessed as ceftazidime MIC at 8 uM by checkerboard assay (reference value: 128 ug/ml)
Pseudomonas aeruginosa [7] = assay: Potentiation of aztreonam-induced antibacterial activity against carbapenem-resistant Pseudomonas aeruginosa 264-104354 clinical isolate assessed as aztreonam MIC at 8 uM by checkerboard assay (reference value: 32 ug/ml)
Pseudomonas aeruginosa [8] = assay: Antibacterial activity against Pseudomonas aeruginosa PAO750 harboring mexAB-oprM/mexCD-oprJ/mexEF-oprN/mexJK/mexXY/opmH efflux deficient mutant
Pseudomonas aeruginosa [9] = assay: Antibacterial activity against Pseudomonas aeruginosa PAO200 harboring mexAB-oprM efflux deficient mutant
Pseudomonas aeruginosa [10] = assay: Potentiation of imipenem-induced antibacterial activity against wild type Pseudomonas aeruginosa PAO1 assessed as fold reduction in imipenem MIC at 8 uM
Pseudomonas aeruginosa [11] = assay: Potentiation of ceftazidime-induced antibacterial activity against carbapenem-resistant Pseudomonas aeruginosa PAO200 harboring and mexAB-oprM efflux deficient mutant assessed as ceftazidime MIC at 8.7 uM by checkerboard assay (reference value: 1 ug/ml)
Pseudomonas aeruginosa [12] = assay: Potentiation of ceftazidime-induced antibacterial activity against carbapenem-resistant Pseudomonas aeruginosa 109084 clinical isolate assessed as ceftazidime MIC at 8.7 uM by checkerboard assay (reference value: 64 ug/ml)
Pseudomonas aeruginosa [13] = assay: Potentiation of ceftazidime-induced antibacterial activity against carbapenem-resistant Pseudomonas aeruginosa 108590 clinical isolate assessed as ceftazidime MIC at 8.7 uM by checkerboard assay (reference value: 32 ug/ml)
Pseudomonas aeruginosa [14] = assay: Potentiation of ceftazidime-induced antibacterial activity against carbapenem-resistant Pseudomonas aeruginosa 107092 clinical isolate assessed as ceftazidime MIC at 8.7 uM by checkerboard assay (reference value: 128 ug/ml)
Pseudomonas aeruginosa [15] = assay: Potentiation of ceftazidime-induced antibacterial activity against carbapenem-resistant Pseudomonas aeruginosa 88949 clinical isolate assessed as ceftazidime MIC at 8.7 uM by checkerboard assay (reference value: 64 ug/ml)
Pseudomonas aeruginosa [16] = assay: Potentiation of ceftazidime-induced antibacterial activity against carbapenem and colistin-resistant Pseudomonas aeruginosa 101243 clinical isolate assessed as ceftazidime MIC at 8.7 uM by checkerboard assay (reference value: 64 ug/ml)
Pseudomonas aeruginosa [17] = assay: Potentiation of ceftazidime-induced antibacterial activity against carbapenem and colistin-resistant Pseudomonas aeruginosa 91433 clinical isolate assessed as ceftazidime MIC at 8.7 uM by checkerboard assay (reference value: 4 ug/ml)
Pseudomonas aeruginosa [18] = assay: Potentiation of ceftazidime-induced antibacterial activity against carbapenem-resistant Pseudomonas aeruginosa 264-104354 clinical isolate assessed as ceftazidime MIC at 8.7 uM by checkerboard assay (reference value: 128 ug/ml)
Pseudomonas aeruginosa [19] = assay: Potentiation of ceftazidime-induced antibacterial activity against carbapenem-resistant Pseudomonas aeruginosa 262-101856 clinical isolate assessed as ceftazidime MIC at 8.7 uM by checkerboard assay (reference value: 16 ug/ml)
Pseudomonas aeruginosa [20] = assay: Potentiation of ceftazidime-induced antibacterial activity against carbapenem-resistant Pseudomonas aeruginosa 260-97103 clinical isolate assessed as ceftazidime MIC at 8.7 uM by checkerboard assay (reference value: 32 ug/ml)
Pseudomonas aeruginosa [21] = assay: Potentiation of ceftazidime-induced antibacterial activity against carbapenem-resistant Pseudomonas aeruginosa 259-96918 clinical isolate expressing metallo-beta-lactamase assessed as ceftazidime MIC at 8.7 uM by checkerboard assay (reference value: 512 ug/ml)
Pseudomonas aeruginosa [22] = assay: Potentiation of aztreonam-induced antibacterial activity against carbapenem-resistant Pseudomonas aeruginosa PAO750 harboring and mexAB-oprM/mexCD-oprJ/mexEF-oprN/mexJK/mexXY/opmH efflux deficient mutant assessed as aztreonam MIC at 8.7 uM by checkerboard assay (reference value: 0.5 ug/ml)
Pseudomonas aeruginosa [23] = assay: Potentiation of aztreonam-induced antibacterial activity against carbapenem-resistant Pseudomonas aeruginosa PAO200 harboring and mexAB-oprM efflux deficient mutant assessed as aztreonam MIC at 8.7 uM by checkerboard assay (reference value: 0.25 ug/ml)
Pseudomonas aeruginosa [24] = assay: Potentiation of aztreonam-induced antibacterial activity against carbapenem-resistant Pseudomonas aeruginosa 108590 clinical isolate assessed as aztreonam MIC at 8.7 uM by checkerboard assay (reference value: 32 ug/ml)
Pseudomonas aeruginosa [25] = assay: Potentiation of aztreonam-induced antibacterial activity against carbapenem-resistant Pseudomonas aeruginosa 88949 clinical isolate assessed as aztreonam MIC at 8.7 uM by checkerboard assay (reference value: 32 ug/ml)
Pseudomonas aeruginosa [26] = assay: Potentiation of aztreonam-induced antibacterial activity against carbapenem and colistin-resistant Pseudomonas aeruginosa 114228 clinical isolate assessed as aztreonam MIC at 8.7 uM by checkerboard assay (reference value: 32 ug/ml)
Pseudomonas aeruginosa [27] = assay: Potentiation of aztreonam-induced antibacterial activity against carbapenem-resistant Pseudomonas aeruginosa 101885 clinical isolate assessed as aztreonam MIC at 8.7 uM by checkerboard assay (reference value: 16 ug/ml)
Pseudomonas aeruginosa [28] = assay: Potentiation of aztreonam-induced antibacterial activity against carbapenem and colistin-resistant Pseudomonas aeruginosa 91433 clinical isolate assessed as aztreonam MIC at 8.7 uM by checkerboard assay (reference value: 16 ug/ml)
Pseudomonas aeruginosa [29] = assay: Potentiation of aztreonam-induced antibacterial activity against carbapenem-resistant Pseudomonas aeruginosa 264-104354 clinical isolate assessed as aztreonam MIC at 8.7 uM by checkerboard assay (reference value: 32 ug/ml)
Pseudomonas aeruginosa [30] = assay: Potentiation of aztreonam-induced antibacterial activity against carbapenem-resistant Pseudomonas aeruginosa 262-101856 clinical isolate assessed as aztreonam MIC at 8.7 uM by checkerboard assay (reference value: 32 ug/ml)
Pseudomonas aeruginosa [31] = assay: Potentiation of aztreonam-induced antibacterial activity against carbapenem-resistant Pseudomonas aeruginosa 260-97103 clinical isolate assessed as aztreonam MIC at 8.7 uM by checkerboard assay (reference value: 64 ug/ml)
Pseudomonas aeruginosa [32] = assay: Potentiation of aztreonam-induced antibacterial activity against wild-type Pseudomonas aeruginosa PAO1 assessed as aztreonam MIC at 8.7 uM by checkerboard assay (reference value: 4 ug/ml)

Question: For `Cl.Cl.Cl.Cl.Cl.Cl.NC[C@H]1O[C@H](O[C@H]2[C@H](OCCCCCCCCCCCCN3CCN(c4cc5c(cc4F)c(=O)c(C(=O)O)cn5C4CC4)CC3)[C@@H](O[C@H]3O[C@H](CO)[C@@H](O)[C@H](N)[C@H]3O)[C@H](N)C[C@@H]2N)[C@H](N)C[C@@H]1O`, which “fold change (FC)” value (Pseudomonas aeruginosa [1]) is on record?
Answer: 16

Question: And the “fold change (FC)” value (Pseudomonas aeruginosa [2])?
Answer: 16

Question: What about the MIC (Pseudomonas aeruginosa [3]) of the same molecule?
Answer: 8 µg/mL

Question: What about the MIC (Pseudomonas aeruginosa [4]) of the same molecule?
Answer: 2 µg/mL

Question: What about the MIC (Pseudomonas aeruginosa [5]) of the same molecule?
Answer: 2 µg/mL

Question: What about the MIC (Pseudomonas aeruginosa [6]) of the same molecule?
Answer: 16 µg/mL

Question: And the MIC (Pseudomonas aeruginosa [7])?
Answer: 8 µg/mL

Question: And the MIC (Pseudomonas aeruginosa [8])?
Answer: 2 µg/mL

Question: And the MIC (Pseudomonas aeruginosa [9])?
Answer: 4 µg/mL

Question: And the “fold change (FC)” value (Pseudomonas aeruginosa [10])?
Answer: 2

Question: With `NC[C@H]1O[C@H](O[C@H]2[C@H](OCCCCCCCCN3CCCNCCNCCCNCC3)[C@@H](O[C@H]3O[C@H](CO)[C@@H](O)[C@H](N)[C@H]3O)[C@H](N)C[C@@H]2N)[C@H](N)C[C@@H]1O.O=C(O)C(F)(F)F.O=C(O)C(F)(F)F.O=C(O)C(F)(F)F.O=C(O)C(F)(F)F.O=C(O)C(F)(F)F.O=C(O)C(F)(F)F.O=C(O)C(F)(F)F.O=C(O)C(F)(F)F.O=C(O)C(F)(F)F` as the molecule, how does the “fold change (FC)” value (Pseudomonas aeruginosa [1]) read?
Answer: 16

Question: And the “fold change (FC)” value (Pseudomonas aeruginosa [2])?
Answer: 16

Question: What about the MIC (Pseudomonas aeruginosa [3]) of the same molecule?
Answer: 8 µg/mL

Question: And the MIC (Pseudomonas aeruginosa [4])?
Answer: 8 µg/mL

Question: And the MIC (Pseudomonas aeruginosa [5])?
Answer: 8 µg/mL

Question: What about the MIC (Pseudomonas aeruginosa [11]) of the same molecule?
Answer: 0.06 µg/mL

Question: And the MIC (Pseudomonas aeruginosa [12])?
Answer: 16 µg/mL

Question: What about the MIC (Pseudomonas aeruginosa [13]) of the same molecule?
Answer: 8 µg/mL

Question: What about the MIC (Pseudomonas aeruginosa [14]) of the same molecule?
Answer: 32 µg/mL

Question: And the MIC (Pseudomonas aeruginosa [15])?
Answer: 16 µg/mL

Question: What about the MIC (Pseudomonas aeruginosa [16]) of the same molecule?
Answer: 8 µg/mL

Question: What about the MIC (Pseudomonas aeruginosa [17]) of the same molecule?
Answer: 2 µg/mL

Question: What about the MIC (Pseudomonas aeruginosa [18]) of the same molecule?
Answer: 32 µg/mL

Question: And the MIC (Pseudomonas aeruginosa [19])?
Answer: 4 µg/mL

Question: What about the MIC (Pseudomonas aeruginosa [20]) of the same molecule?
Answer: 16 µg/mL

Question: What about the MIC (Pseudomonas aeruginosa [21]) of the same molecule?
Answer: 64 µg/mL

Question: What about the MIC (Pseudomonas aeruginosa [22]) of the same molecule?
Answer: 0.03 µg/mL

Question: And the MIC (Pseudomonas aeruginosa [23])?
Answer: 0.02 µg/mL

Question: And the MIC (Pseudomonas aeruginosa [24])?
Answer: 8 µg/mL

Question: What about the MIC (Pseudomonas aeruginosa [25]) of the same molecule?
Answer: 16 µg/mL

Question: What about the MIC (Pseudomonas aeruginosa [26]) of the same molecule?
Answer: 4 µg/mL

Question: What about the MIC (Pseudomonas aeruginosa [27]) of the same molecule?
Answer: 0.5 µg/mL

Question: What about the MIC (Pseudomonas aeruginosa [28]) of the same molecule?
Answer: 16 µg/mL

Question: And the MIC (Pseudomonas aeruginosa [29])?
Answer: 8 µg/mL

Question: What about the MIC (Pseudomonas aeruginosa [30]) of the same molecule?
Answer: 8 µg/mL

Question: What about the MIC (Pseudomonas aeruginosa [31]) of the same molecule?
Answer: 8 µg/mL

Question: And the MIC (Pseudomonas aeruginosa [32])?
Answer: 0.25 µg/mL

Question: What about the MIC (Pseudomonas aeruginosa [8]) of the same molecule?
Answer: 128 µg/mL

Question: What about the MIC (Pseudomonas aeruginosa [9]) of the same molecule?
Answer: > 128 µg/mL

Question: And the “fold change (FC)” value (Pseudomonas aeruginosa [10])?
Answer: 2

Question: How did the “fold change (FC)” value (Pseudomonas aeruginosa [1]) turn out when `NC[C@H]1O[C@H](O[C@H]2[C@H](OCCCCc3cn(CCCCO[C@@H]4[C@@H](O)[C@H](N)C[C@H](N)[C@H]4O[C@H]4O[C@H](CN)[C@@H](O)C[C@H]4N)nn3)[C@@H](O)[C@H](N)C[C@@H]2N)[C@H](N)C[C@@H]1O.O=C(O)C(F)(F)F.O=C(O)C(F)(F)F.O=C(O)C(F)(F)F.O=C(O)C(F)(F)F.O=C(O)C(F)(F)F.O=C(O)C(F)(F)F.O=C(O)C(F)(F)F.O=C(O)C(F)(F)F` was run?
Answer: 16

Question: What about the “fold change (FC)” value (Pseudomonas aeruginosa [2]) of the same molecule?
Answer: 16

Question: And the MIC (Pseudomonas aeruginosa [3])?
Answer: 16 µg/mL

Question: And the MIC (Pseudomonas aeruginosa [4])?
Answer: 4 µg/mL

Question: What about the MIC (Pseudomonas aeruginosa [5]) of the same molecule?
Answer: 16 µg/mL

Question: What about the MIC (Pseudomonas aeruginosa [6]) of the same molecule?
Answer: 32 µg/mL

Question: What about the MIC (Pseudomonas aeruginosa [7]) of the same molecule?
Answer: 8 µg/mL

Question: And the MIC (Pseudomonas aeruginosa [8])?
Answer: 128 µg/mL

Question: What about the MIC (Pseudomonas aeruginosa [9]) of the same molecule?
Answer: > 128 µg/mL

Question: And the “fold change (FC)” value (Pseudomonas aeruginosa [10])?
Answer: 2

Question: How did the “fold change (FC)” value (Pseudomonas aeruginosa [1]) turn out when `NC[C@H]1O[C@H](O[C@H]2[C@H](OCCCCCCCCN3CCCNCCNCCCNCC3)[C@@H](O)[C@H](N)C[C@@H]2N)[C@H](N)C[C@@H]1O.O=C(O)C(F)(F)F.O=C(O)C(F)(F)F.O=C(O)C(F)(F)F.O=C(O)C(F)(F)F.O=C(O)C(F)(F)F.O=C(O)C(F)(F)F.O=C(O)C(F)(F)F.O=C(O)C(F)(F)F` was run?
Answer: 16

Question: What about the “fold change (FC)” value (Pseudomonas aeruginosa [2]) of the same molecule?
Answer: 16

Question: And the MIC (Pseudomonas aeruginosa [3])?
Answer: 16 µg/mL

Question: And the MIC (Pseudomonas aeruginosa [4])?
Answer: 8 µg/mL

Question: What about the MIC (Pseudomonas aeruginosa [5]) of the same molecule?
Answer: 8 µg/mL

Question: What about the MIC (Pseudomonas aeruginosa [6]) of the same molecule?
Answer: 32 µg/mL

Question: What about the MIC (Pseudomonas aeruginosa [7]) of the same molecule?
Answer: 16 µg/mL

Question: And the MIC (Pseudomonas aeruginosa [8])?
Answer: > 128 µg/mL

Question: And the MIC (Pseudomonas aeruginosa [9])?
Answer: > 128 µg/mL

Question: What about the “fold change (FC)” value (Pseudomonas aeruginosa [10]) of the same molecule?
Answer: 2
